Measurements published in PMC5382172 (Frontiers in Molecular Neuroscience, 2017).
Positions count from the first letter of the chain named. Names and notes keep the numbering of the source. Each block holds one molecule with its values, some of them ahead of it.

What was measured:
[1] = biological target: T1, GluClα[SSS→GSD]/βWT receptor (Caenorhabditis elegans, UniProt G5EBR3+Q17328, S236G/S238D); experiment: Whole-cell patch clamp in CHO cells, GluClα[SSS→GSD]/βWT receptor; assay type: cell-based; conditions: +60 mV
T1 construct: entry codes of the full-length subunits used in this study; expressed in transfected cells; host or cells: CHO cells, transient co-transfection 1:1, pcDNA3.1
T1 sequence (G5EBR3 21-461 S236G/S238D, one chain of several): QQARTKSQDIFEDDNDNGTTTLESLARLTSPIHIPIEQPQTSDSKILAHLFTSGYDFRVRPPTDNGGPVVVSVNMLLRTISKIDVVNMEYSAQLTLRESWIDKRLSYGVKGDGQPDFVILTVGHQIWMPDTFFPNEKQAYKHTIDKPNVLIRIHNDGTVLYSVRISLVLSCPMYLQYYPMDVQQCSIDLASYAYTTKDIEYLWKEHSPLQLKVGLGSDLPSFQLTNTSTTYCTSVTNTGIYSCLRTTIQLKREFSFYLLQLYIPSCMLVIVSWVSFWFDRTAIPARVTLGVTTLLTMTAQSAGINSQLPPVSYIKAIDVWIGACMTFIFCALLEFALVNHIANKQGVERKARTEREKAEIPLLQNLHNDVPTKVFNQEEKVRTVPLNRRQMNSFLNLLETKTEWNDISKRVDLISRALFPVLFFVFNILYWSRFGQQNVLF
Protocol: (§1) Chinese hamster ovary (CHO) cells were cultured as previously (Bar-Lev et al., [2011]) in Dulbecco’s Modified Eagle Medium (DMEM) containing 10% fetal calf serum, 2 mM glutamax, 100 Units/ml penicillin G and 100 μg/ml streptomycin, and grown in 5% CO2 at 37°C under 90%–95% humidity. The cells were seeded on glass coverslips (13-mm diameter) placed in a 24-multiwell plate. […] For the expression of GluCl receptors, cells were transiently co-transfected with pcDNA3.1 plasmids containing the ORFs of interest using transit-LT1 transfection reagent (Mirus, Madison, WI, USA), according to the manufacturer’s protocol. The cDNAs encoding the C. elegans GluClα (GLC-1) or its mutated versions and the GluClβ (GLC-2) subunits (200–600 ng per well) were used at 1:1 ratio. The pIRES-CD8 plasmid (200 ng per well) was added to enable the visualization of the expressing cells by beads coated with anti-CD8 antibodies (Invitrogen). […]
(§2) Whole-cell patch clamp recordings were performed as described previously (Bar-Lev et al., [2011]) in CHO cells that were prepared as detailed above. […] The currents were measured with an Axopatch 200B patch-clamp amplifier (Molecular Devices, Sunnyvale, CA, USA) and a Digidata 1440A interface (Molecular Devices). […]

[2] = biological target: T2, GluClαY194R/βWT receptor (Caenorhabditis elegans, UniProt G5EBR3+Q17328, Y194R); experiment: Whole-cell patch clamp in CHO cells, GluClαY194R/βWT receptor; assay type: cell-based; conditions: +60 mV
T2 construct: entry codes of the full-length subunits used in this study; expressed in transfected cells; host or cells: CHO cells, transient co-transfection 1:1, pcDNA3.1
T2 sequence (G5EBR3 21-461 Y194R, one chain of several): as the sequence (G5EBR3 21-461 S236G/S238D, one chain of several) above, with Y174R, G216S, D218S counted along it
Protocol: as §1, §2

[3] = biological target: T3, GluClαWT/βWT receptor (Caenorhabditis elegans, UniProt G5EBR3+Q17328); experiment: Whole-cell patch clamp in CHO cells, GluClαWT/βWT receptor; assay type: cell-based
T3 construct: entry codes of the full-length subunits used in this study; expressed in transfected cells; host or cells: CHO cells, transient co-transfection 1:1, pcDNA3.1
T3 sequence (G5EBR3 21-461): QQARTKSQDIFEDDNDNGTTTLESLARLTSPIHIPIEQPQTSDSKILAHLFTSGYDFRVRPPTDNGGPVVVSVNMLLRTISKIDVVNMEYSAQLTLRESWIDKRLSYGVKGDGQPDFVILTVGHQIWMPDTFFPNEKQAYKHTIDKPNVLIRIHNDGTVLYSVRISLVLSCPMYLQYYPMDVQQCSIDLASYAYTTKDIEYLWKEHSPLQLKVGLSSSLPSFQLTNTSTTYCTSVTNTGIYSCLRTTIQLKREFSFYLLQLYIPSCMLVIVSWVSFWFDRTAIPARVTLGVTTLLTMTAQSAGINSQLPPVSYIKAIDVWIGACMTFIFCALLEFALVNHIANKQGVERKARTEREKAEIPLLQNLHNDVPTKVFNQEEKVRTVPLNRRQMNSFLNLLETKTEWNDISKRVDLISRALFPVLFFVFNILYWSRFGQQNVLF
T3 sequence (Q17328 23-434): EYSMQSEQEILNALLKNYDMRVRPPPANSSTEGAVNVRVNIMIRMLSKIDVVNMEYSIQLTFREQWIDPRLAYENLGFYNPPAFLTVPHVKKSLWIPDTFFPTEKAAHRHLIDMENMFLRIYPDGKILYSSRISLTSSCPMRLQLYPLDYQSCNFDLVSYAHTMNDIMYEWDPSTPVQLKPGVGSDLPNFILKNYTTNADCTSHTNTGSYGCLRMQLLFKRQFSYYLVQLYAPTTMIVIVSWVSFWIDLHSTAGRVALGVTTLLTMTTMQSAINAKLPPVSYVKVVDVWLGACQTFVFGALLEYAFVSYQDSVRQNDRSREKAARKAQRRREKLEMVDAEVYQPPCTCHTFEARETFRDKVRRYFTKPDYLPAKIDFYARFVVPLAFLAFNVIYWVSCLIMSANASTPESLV
Protocol: (§3) Chinese hamster ovary (CHO) cells were cultured as previously (Bar-Lev et al., [2011]) in Dulbecco’s Modified Eagle Medium (DMEM) containing 10% fetal calf serum, 2 mM glutamax, 100 Units/ml penicillin G and 100 μg/ml streptomycin, and grown in 5% CO2 at 37°C under 90%–95% humidity. The cells were seeded on glass coverslips (13-mm diameter) placed in a 24-multiwell plate. […] For the expression of GluCl receptors, cells were transiently co-transfected with pcDNA3.1 plasmids containing the ORFs of interest using transit-LT1 transfection reagent (Mirus, Madison, WI, USA), according to the manufacturer’s protocol. The cDNAs encoding the C. elegans GluClα (GLC-1) or its mutated versions and the GluClβ (GLC-2) subunits (200–600 ng per well) were used at 1:1 ratio. The pIRES-CD8 plasmid (200 ng per well) was added to enable the visualization of the expressing cells by beads coated with anti-CD8 antibodies (Invitrogen). For high-level expression of the GluClαF276A/βWT mutant receptor in experiments assigned to determine its IVM-EC50, we used the X-tremeGENE HP DNA Transfection Reagent (Roche Life Science). Recordings were performed 72–96 h following the transfection.
(§4) Whole-cell patch clamp recordings were performed as described previously (Bar-Lev et al., [2011]) in CHO cells that were prepared as detailed above. The normal external solution (NES) contained (in millimolar): 140 NaCl, 2.8 KCl, 2 CaCl2, 2 MgCl2, 10 glucose and 10 HEPES, adjusted to pH 7.35 with NaOH (310 mOsm/L). The pipette solution contained (in millimolar): 130 KCl, 4 MgCl2, 4 Na2ATP, 1 EGTA and 10 HEPES, adjusted to pH 7.35 with KOH (290 mOsm/L). The osmolarity of these solutions was maintained by adding sucrose. The electrode resistance was 6–10 MΩ when filled with the pipette solution. External solutions were applied onto the cell by using the VC-77SP fast-step system (Warner Instruments, Hamden, CT, USA) combined with N2 pressure of 3–4 psi to produce laminar flow of the external solution onto the patched cell. All measurements were performed at room temperature. The currents were measured with an Axopatch 200B patch-clamp amplifier (Molecular Devices, Sunnyvale, CA, USA) and a Digidata 1440A interface (Molecular Devices). Acquisition of recording data was performed at 2.5 kHz and recordings were low-pass filtered at 1 kHz, through a four-pole Bessel filter. The pClamp 10 software (Molecular Devices) was used for data acquisition. […] Five-hundred milliseconds after the application started (which is also after the current reached to its peak at −60 mV), the voltage was stepped from −60 mV to −80 mV for 50 ms followed by a 250-ms-long voltage ramp ranging from −80 mV to +80 mV.
(§5) Dose-response curves were fitted to the data points by a nonlinear regression using the Hill Equation 1,

[4] = biological target: T3, GluClαWT/βWT receptor; design: method as in Degani-Katzav et al., [2016]; conditions: CHO cells co-transfected with WT α and β subunits; ref Degani-Katzav et al., [2016]; cited from earlier work
[5] = biological target: T4, GluClαF276A/βWT receptor (Caenorhabditis elegans, UniProt G5EBR3+Q17328, F276A); experiment: Whole-cell patch clamp in CHO cells, GluClαF276A/βWT receptor; assay type: cell-based
T4 construct: entry codes of the full-length subunits used in this study; expressed in transfected cells; host or cells: CHO cells, transient co-transfection, pcDNA3.1 (X-tremeGENE HP for the IVM-EC50 experiments)
T4 sequence (G5EBR3 21-461 F276A, one chain of several): as the sequence (G5EBR3 21-461 S236G/S238D, one chain of several) above, with G216S, D218S, F256A counted along it
Protocol: as §3, §4, §5

[6] = biological target: T5, GluClαP192Y/βWT receptor (Caenorhabditis elegans, UniProt G5EBR3+Q17328, P192Y); experiment: Whole-cell patch clamp in CHO cells, GluClαP192Y/βWT receptor; assay type: cell-based; conditions: +60 mV
T5 construct: entry codes of the full-length subunits used in this study; expressed in transfected cells; host or cells: CHO cells, transient co-transfection 1:1, pcDNA3.1
T5 sequence (G5EBR3 21-461 P192Y, one chain of several): as the sequence (G5EBR3 21-461 S236G/S238D, one chain of several) above, with P172Y, G216S, D218S counted along it
Protocol: as §1, §2

[7] = biological target: T6, GluClαP192E/βWT receptor (Caenorhabditis elegans, UniProt G5EBR3+Q17328, P192E); experiment: Whole-cell patch clamp in CHO cells, GluClαP192E/βWT receptor; assay type: cell-based; conditions: +60 mV
T6 construct: entry codes of the full-length subunits used in this study; expressed in transfected cells; host or cells: CHO cells, transient co-transfection 1:1, pcDNA3.1
T6 sequence (G5EBR3 21-461 P192E, one chain of several): as the sequence (G5EBR3 21-461 S236G/S238D, one chain of several) above, with P172E, G216S, D218S counted along it
Protocol: as §1, §2

[8] = biological target: T7, GluClβWT (GLC-2) homomeric receptor (Caenorhabditis elegans, UniProt Q17328); conditions: CHO cells, βWT alone, ref Degani-Katzav et al., cited from earlier work
T7 construct: entry codes of the full-length subunits used in this study; expressed in transfected cells; host or cells: CHO cells, transient transfection, pcDNA3.1
T7 sequence (Q17328 23-434): T3 sequence (Q17328 23-434)

[9] = biological target: T8, GluClαE273R/βWT receptor (Caenorhabditis elegans, UniProt G5EBR3+Q17328, E273R); experiment: Whole-cell patch clamp in CHO cells, GluClαE273R/βWT receptor; assay type: cell-based; conditions: +60 mV
T8 construct: entry codes of the full-length subunits used in this study; expressed in transfected cells; host or cells: CHO cells, transient co-transfection 1:1, pcDNA3.1
T8 sequence (G5EBR3 21-461 E273R, one chain of several): as the sequence (G5EBR3 21-461 S236G/S238D, one chain of several) above, with G216S, D218S, E253R counted along it
Protocol: as §1, §2

[10] = biological target: T9, GluClαWT (GLC-1) homomeric receptor (Caenorhabditis elegans, UniProt G5EBR3); design: method as in Degani-Katzav et al., [2016]; conditions: CHO cells, αWT alone; ref Degani-Katzav et al., [2016]; cited from earlier work
T9 construct: entry codes of the full-length subunits used in this study; expressed in transfected cells; host or cells: CHO cells, transient transfection, pcDNA3.1
T9 sequence (G5EBR3 21-461): T3 sequence (G5EBR3 21-461)

[11] = biological target: T10, GluClαF276W/βWT receptor (Caenorhabditis elegans, UniProt G5EBR3+Q17328, F276W); experiment: Whole-cell patch clamp in CHO cells, GluClαF276W/βWT receptor; assay type: cell-based; conditions: +60 mV
T10 construct: entry codes of the full-length subunits used in this study; expressed in transfected cells; host or cells: CHO cells, transient co-transfection 1:1, pcDNA3.1
T10 sequence (G5EBR3 21-461 F276W, one chain of several): as the sequence (G5EBR3 21-461 S236G/S238D, one chain of several) above, with G216S, D218S, F256W counted along it
Protocol: as §1, §2

[12] = biological target: T11, GluClαP192M/βWT receptor (Caenorhabditis elegans, UniProt G5EBR3+Q17328, P192M); experiment: Whole-cell patch clamp in CHO cells, GluClαP192M/βWT receptor; assay type: cell-based; conditions: +60 mV
T11 construct: entry codes of the full-length subunits used in this study; expressed in transfected cells; host or cells: CHO cells, transient co-transfection 1:1, pcDNA3.1
T11 sequence (G5EBR3 21-461 P192M, one chain of several): as the sequence (G5EBR3 21-461 S236G/S238D, one chain of several) above, with P172M, G216S, D218S counted along it
Protocol: as §1, §2

[13] = biological target: T12, C. elegans GluClβWT subunit (GLC-2) (C. elegans) (UniProt Q17328)
T12 sequence: T3 sequence (Q17328 23-434)

Molecule: N[C@@H](CCC(=O)O)C(=O)O [Glu, glutamate]
Glu activation properties nH (Hill coefficient) [1]: 1.3 ± 0.1
Glu activation properties nH (Hill coefficient) [2]: 1.5 ± 0.1
receptor population activated ([3]; 0.3 mM Glu, calculated from the Glu dose-response curve): ~ 7%
Glu activation properties nH (Hill coefficient) ([3]; CHO cells, +60 mV): 1.6 ± 0.1
Hill coefficient of activation by Glu after pre-exposure to IVM ([3]; pre-exposure to 7 nM IVM): 1.2 ± 0.07
response to Glu [4]: robust responses
receptor population activated ([5]; 1 mM Glu): ~ 5%
Glu activation properties nH (Hill coefficient) ([5]; CHO cells, +60 mV): 1.3 ± 0.1
Hill coefficient of activation by Glu after pre-exposure to IVM ([5]; pre-exposure to 50 nM IVM): 1.5 ± 0.03
Glu activation properties nH (Hill coefficient) [6]: 1.5 ± 0.1
Glu activation properties nH (Hill coefficient) [7]: 1.5 ± 0.1
cells responding to 100 mM Glu ([8]; X-tremeGENE HP transfection, [2017]): 4 of 46
response to 10 mM Glu [8, 2016]: very weak, rare responses
Glu activation properties nH (Hill coefficient) [9]: 1.5 ± 0.1
response to 10 mM Glu [10]: very weak responses
Glu activation properties nH (Hill coefficient) [11]: 1.5 ± 0.1
Glu activation properties nH (Hill coefficient) [12]: 1.6 ± 0.1

whole-cell current amplitude in response to the Glu-EC50 concentration, CHO cells co-transfected with both subunits, +60 mV [13]: 3.1 nA
B1: C. elegans GluClα (GLC-1) subunit, P192E (receptor)
chain: T3 sequence (G5EBR3 21-461) with P172E

whole-cell current amplitude in response to the Glu-EC50 concentration, CHO cells co-transfected with both subunits, +60 mV [13]: 3 nA
B2: C. elegans GluClα (GLC-1) subunit, F276W (receptor)
chain: T3 sequence (G5EBR3 21-461) with F256W

whole-cell current amplitude in response to the Glu-EC50 concentration, CHO cells co-transfected with both subunits, +60 mV [13]: 2.9 nA
B3: C. elegans GluClα (GLC-1) subunit, SSS→GSD (positions 236–238) (receptor)
chain: T3 sequence (G5EBR3 21-461) with S216G, S218D

whole-cell current amplitude in response to the Glu-EC50 concentration, CHO cells co-transfected with both subunits, +60 mV [13]: 2.2 nA
B4: C. elegans GluClα (GLC-1) subunit, E273R (receptor)
chain: T3 sequence (G5EBR3 21-461) with E253R

whole-cell current amplitude in response to the Glu-EC50 concentration, CHO cells co-transfected with both subunits, +60 mV [13]: 5.9 nA
B5: C. elegans GluClα (GLC-1) subunit, Y194R (receptor)
chain: T3 sequence (G5EBR3 21-461) with Y174R

whole-cell current amplitude in response to the Glu-EC50 concentration, CHO cells co-transfected with both subunits, +60 mV [13]: 3.1 nA
B6: C. elegans GluClα (GLC-1) subunit, F276A (receptor)
chain: T3 sequence (G5EBR3 21-461) with F256A

whole-cell current amplitude in response to the Glu-EC50 concentration, CHO cells co-transfected with both subunits, +60 mV [13]: 2.1 nA
B7: C. elegans GluClα (GLC-1) subunit, P192Y (receptor)
chain: T3 sequence (G5EBR3 21-461) with P172Y

whole-cell current amplitude in response to the Glu-EC50 concentration, CHO cells co-transfected with both subunits, +60 mV [13]: 3.2 nA
B8: C. elegans GluClα (GLC-1) subunit, P192M (receptor)
chain: T3 sequence (G5EBR3 21-461) with P172M
